Data on nine compounds can be found in patent US20250188420A1, “MATURING AGENT HAVING BOTH OF ALK5 INHIBITORY ACTIVITY AND CDK8/19 INHIBITORY ACTIVITY” (ORIZURU THERAPEUTICS, INC., priority 2022, published 2025).

In one data set the target is T1, ALK5 (Homo sapiens, UniProt P36897).
T1 sequence (P36897 34-503): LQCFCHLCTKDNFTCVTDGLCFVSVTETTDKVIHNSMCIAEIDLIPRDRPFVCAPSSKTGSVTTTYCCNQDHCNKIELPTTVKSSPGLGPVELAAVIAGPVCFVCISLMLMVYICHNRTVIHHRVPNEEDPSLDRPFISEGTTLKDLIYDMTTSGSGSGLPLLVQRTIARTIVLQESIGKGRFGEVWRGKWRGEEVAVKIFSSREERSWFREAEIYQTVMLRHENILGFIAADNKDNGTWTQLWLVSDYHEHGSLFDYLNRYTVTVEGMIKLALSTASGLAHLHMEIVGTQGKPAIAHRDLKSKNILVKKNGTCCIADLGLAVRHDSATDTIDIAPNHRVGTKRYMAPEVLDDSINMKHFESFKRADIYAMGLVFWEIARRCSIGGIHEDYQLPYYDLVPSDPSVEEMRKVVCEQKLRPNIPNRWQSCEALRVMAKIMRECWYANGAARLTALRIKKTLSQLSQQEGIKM
The data set can be described thus: ALK5-inhibiting activity (FIG. 1). The data set is classed as biochemical.

Data set [1] deals with Salmonella typhimurium TA100, TA1535, TA98, and TA1537 strains and an Escherichia coli WP2uvrA strain. As to the kind of experiment: Ames test (mutagenicity evaluation). Particulars: no S9 fraction; FIG. 1. The method, then: (§1) The Ames test was conducted according to a conventionally known approach. That is, each bacterial strain of Salmonella typhimurium TA100, TA1535, TA98, and TA1537 strains and an Escherichia coli WP2uvrA strain was mixed with each compound with seven concentrations (78.1 to 5,000 μg/plate), preincubated in vitro for 20 minutes, and then inoculated, together with added semifluid agar, to a minimal glucose agar medium, followed by solidification and incubation at 37° C. for 48 hours. This experiment involved no rat liver S9 fraction because the experiment was aimed at evaluating the mutagenicity of each compound in a cell culture system, not evaluating metabolites obtained after metabolisms by hepatic enzymes. […] Positivity was determined when an average number of revertant colonies in any of the bacterial strains was at least twice or more the average number of the negative control.
(In general: The Ames test detects mutagens through reverse mutation in bacteria.)

Data set [2] concerns Salmonella typhimurium TA1537. The method, then: as §1
The subject of data set [3] is 11 kinases including CDK8 and CDK19. The note with it: 11 of approximately 350 recombinant kinases.
The subject of data set [4] is insulin-positive cell population obtained from human iPS cells. The data set can be described thus: single-cell RNA-seq analysis of insulin-positive cell populations. The data set is classed as cell-based. The note with it: for typical endocrine cells (clusters #0, #1, #2, #3, and #6) in the insulin-positive cell population: 10 μM ALK5iII, 3 μM SB431542, 0.3 μM Senexin B or combination; for percentage of each cluster (#1, #3, #6, and #12) in insulin-positive and NKX6.1-positive cell subpopulation: versus population produced using ALK5iII, FIG. 5. The method, then: Subsequently, in order to compare cell composition among the respective insulin-positive cell populations produced using the inhibitors (1) to (4), single-cell RNA-seq (scRNA-seq) analysis was conducted. A library for scRNA-seq analysis was prepared using Chromium Controller and a preparation kit (Chromium Next GEM Single Cell 3′ Kits v3.1) from 10× Genomics, Inc. and sequenced using Hi-seq platform from Illumina, Inc. Data on the obtained UMI counts was analyzed using Cell Ranger and R Package Seurat from 10× Genomics, Inc. and subjected to dimensionality reduction and visualization using PCA and UMAP. Cell clustering based on the results of dimensionality reduction was carried out by clustering based on the shared nearest neighbor method of Seurat.
As a result, cell clusters #1 to #17 were identified in the respective insulin-positive cell populations produced using the inhibitors (1) to (4). […] The cells of clusters #3 and #6 had features specific for enterochromaffin cells. […] These cells can thereby be discriminated from the cells of cluster #1 adjacent thereto and are therefore considered to be relatively immature β cells. Some of the β cells might be integrated, together with α cells, δ cells, and γ cells, into cluster #0.

The target in the next data set is TGFBR2 (Homo sapiens, UniProt P37173). The note with it: estimated from inhibition at 0.1 μM and 1 μM.
For a further data set, the target named is CDK19 (Homo sapiens, UniProt Q9BWU1). Particulars: estimated from inhibition at 0.1 μM and 1 μM.
Another data set has as its system CDK8 and CDK19 (CDK8/19). The data set can be described thus: binding evaluation test of kinase inhibitors against 11 kinases (FIG. 3). The note with it: compared among ALK5iII and nonmutagenic ALK5 inhibitors. The method, then:
Next, the nonmutagenic ALK5 inhibitors (SB431542, SB525334, IN1130, and EW-7197) were also evaluated for their inhibitory activity against these 11 kinases.

A further data set deals with RIPK2 (Homo sapiens, UniProt O43353). Particulars: estimated from inhibition at 0.1 μM and 1 μM.
A further data set has as its target CDK8 (Homo sapiens, UniProt P49336). The note with it: estimated from inhibition at 0.1 μM and 1 μM.
The target of the next data set is TNIK (Homo sapiens, UniProt Q9UKE5). The note with it: estimated from inhibition at 0.1 μM and 1 μM.
The subject of data set [5] is pancreatic progenitor cell population obtained from human iPS cells (Ff-I14-s04 line). As to the kind of experiment: induction of differentiation of pancreatic progenitor cell population into insulin-positive cell population, flow cytometry. Format: cell-based. The method, then: In this testing method, the induction of differentiation of human iPS cells (Ff-I14-s04 line) into a pancreatic progenitor cell population was carried out according to the above steps 1)-4), the previous report (Stem Cell Research (2015) 14, 185-197), etc. The induction of differentiation into insulin-positive cells was carried out according to the above step 5), 6), etc.
The number of insulin-positive and NKX6.1-positive cells and the number of CHGA-positive and PDX1-positive cells in the insulin-positive cell population obtained by the above method was counted by flow cytometry to determine the respective proportions of the cells in each cell population.
The number of insulin-positive and NKX6.1-positive cells in the insulin-positive cell population obtained by the above method was counted by flow cytometry to determine the respective proportions of the cells in each cell population.
(Flow cytometry measures light scatter and fluorescence of single cells or particles in a stream.)

For data set [6] the test system is unchanged. The description is as above. Format: cell-based. Particulars: Example 3; 3 μM SB431542, 0.3 μM Senexin B or both; versus 10 μM ALK5iII, FIG. 4B.
Setting [7] is: Example 2, SB525334 10 μM, SB431542 10 μM, IN1130 1 μM, EW-7197 1 μM, versus control medium (−).
Where [8] appears, read: Example 3, 3 μM SB431542, 0.3 μM Senexin B or both, versus 10 μM ALK5iII, FIG. 4A.

Read-outs that look alike come from different tables or passages of the source.

CDK19, sequence (Q9BWU1 whole entry, species assumed): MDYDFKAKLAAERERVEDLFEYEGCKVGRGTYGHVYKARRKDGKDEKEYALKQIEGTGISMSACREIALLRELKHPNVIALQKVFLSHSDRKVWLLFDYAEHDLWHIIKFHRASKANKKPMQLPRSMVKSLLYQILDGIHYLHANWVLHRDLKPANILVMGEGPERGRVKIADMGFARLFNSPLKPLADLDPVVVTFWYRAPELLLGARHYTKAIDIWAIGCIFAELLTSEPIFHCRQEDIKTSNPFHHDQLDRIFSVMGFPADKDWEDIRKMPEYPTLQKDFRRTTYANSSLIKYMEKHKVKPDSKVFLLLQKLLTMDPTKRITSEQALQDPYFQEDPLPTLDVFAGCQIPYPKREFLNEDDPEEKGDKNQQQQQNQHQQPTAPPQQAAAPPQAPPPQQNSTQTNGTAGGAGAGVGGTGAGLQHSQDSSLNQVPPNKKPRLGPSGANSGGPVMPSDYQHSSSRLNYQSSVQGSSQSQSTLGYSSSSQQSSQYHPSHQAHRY
CDK19, sequence (P24863 whole entry partner, species assumed): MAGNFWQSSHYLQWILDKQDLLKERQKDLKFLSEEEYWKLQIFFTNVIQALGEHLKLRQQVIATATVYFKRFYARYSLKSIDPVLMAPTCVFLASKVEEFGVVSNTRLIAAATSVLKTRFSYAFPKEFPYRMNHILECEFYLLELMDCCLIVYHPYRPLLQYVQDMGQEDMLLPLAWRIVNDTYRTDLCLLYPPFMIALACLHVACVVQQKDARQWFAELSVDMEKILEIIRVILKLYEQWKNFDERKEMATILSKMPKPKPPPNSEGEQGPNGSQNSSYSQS
RIPK2, sequence (O43353 whole entry, species assumed): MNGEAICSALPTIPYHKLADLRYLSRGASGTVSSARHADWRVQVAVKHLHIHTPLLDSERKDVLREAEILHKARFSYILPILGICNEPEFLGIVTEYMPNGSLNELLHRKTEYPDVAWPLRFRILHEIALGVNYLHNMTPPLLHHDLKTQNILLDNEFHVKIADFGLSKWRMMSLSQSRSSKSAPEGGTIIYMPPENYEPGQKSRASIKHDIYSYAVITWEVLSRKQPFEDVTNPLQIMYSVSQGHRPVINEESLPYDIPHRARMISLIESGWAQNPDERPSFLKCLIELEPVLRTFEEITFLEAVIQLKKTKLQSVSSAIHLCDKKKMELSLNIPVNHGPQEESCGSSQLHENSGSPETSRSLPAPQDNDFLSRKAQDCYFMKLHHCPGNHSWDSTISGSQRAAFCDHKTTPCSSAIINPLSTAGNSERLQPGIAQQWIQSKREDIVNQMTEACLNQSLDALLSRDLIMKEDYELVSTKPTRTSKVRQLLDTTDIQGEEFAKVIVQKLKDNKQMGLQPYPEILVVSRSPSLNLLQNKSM
CDK8, sequence (P49336 whole entry, species assumed): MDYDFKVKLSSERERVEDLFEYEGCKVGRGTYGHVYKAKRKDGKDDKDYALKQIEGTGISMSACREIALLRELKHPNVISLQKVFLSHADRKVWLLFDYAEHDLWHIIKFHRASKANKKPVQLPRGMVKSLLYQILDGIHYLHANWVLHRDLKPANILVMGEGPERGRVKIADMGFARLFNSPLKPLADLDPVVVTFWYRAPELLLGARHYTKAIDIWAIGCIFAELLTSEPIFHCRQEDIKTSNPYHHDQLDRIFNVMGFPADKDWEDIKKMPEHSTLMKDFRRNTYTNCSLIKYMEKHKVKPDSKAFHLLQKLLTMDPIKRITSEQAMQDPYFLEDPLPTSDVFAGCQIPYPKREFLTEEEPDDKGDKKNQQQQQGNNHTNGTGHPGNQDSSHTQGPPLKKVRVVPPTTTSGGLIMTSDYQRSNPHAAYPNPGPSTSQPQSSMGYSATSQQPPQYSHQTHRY
CDK8, sequence (P24863 whole entry partner, species assumed): as the sequence (P24863 whole entry partner, species assumed) above
TGFBR2, sequence (P37173 23-567, species assumed): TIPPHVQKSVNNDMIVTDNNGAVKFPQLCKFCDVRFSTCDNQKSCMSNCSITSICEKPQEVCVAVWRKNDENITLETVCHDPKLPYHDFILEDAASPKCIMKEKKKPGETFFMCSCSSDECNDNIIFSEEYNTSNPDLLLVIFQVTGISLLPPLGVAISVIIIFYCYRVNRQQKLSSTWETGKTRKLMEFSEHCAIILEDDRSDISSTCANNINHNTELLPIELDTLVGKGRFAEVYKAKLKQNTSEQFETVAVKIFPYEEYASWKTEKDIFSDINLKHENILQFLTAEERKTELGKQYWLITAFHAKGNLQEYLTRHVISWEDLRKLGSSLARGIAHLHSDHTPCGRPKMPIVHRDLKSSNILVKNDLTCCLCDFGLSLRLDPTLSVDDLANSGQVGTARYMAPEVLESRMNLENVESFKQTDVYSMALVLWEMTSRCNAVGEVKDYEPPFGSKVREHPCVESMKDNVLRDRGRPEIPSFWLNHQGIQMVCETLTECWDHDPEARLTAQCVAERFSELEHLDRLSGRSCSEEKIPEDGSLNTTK
TNIK, sequence (Q9UKE5 whole entry, species assumed): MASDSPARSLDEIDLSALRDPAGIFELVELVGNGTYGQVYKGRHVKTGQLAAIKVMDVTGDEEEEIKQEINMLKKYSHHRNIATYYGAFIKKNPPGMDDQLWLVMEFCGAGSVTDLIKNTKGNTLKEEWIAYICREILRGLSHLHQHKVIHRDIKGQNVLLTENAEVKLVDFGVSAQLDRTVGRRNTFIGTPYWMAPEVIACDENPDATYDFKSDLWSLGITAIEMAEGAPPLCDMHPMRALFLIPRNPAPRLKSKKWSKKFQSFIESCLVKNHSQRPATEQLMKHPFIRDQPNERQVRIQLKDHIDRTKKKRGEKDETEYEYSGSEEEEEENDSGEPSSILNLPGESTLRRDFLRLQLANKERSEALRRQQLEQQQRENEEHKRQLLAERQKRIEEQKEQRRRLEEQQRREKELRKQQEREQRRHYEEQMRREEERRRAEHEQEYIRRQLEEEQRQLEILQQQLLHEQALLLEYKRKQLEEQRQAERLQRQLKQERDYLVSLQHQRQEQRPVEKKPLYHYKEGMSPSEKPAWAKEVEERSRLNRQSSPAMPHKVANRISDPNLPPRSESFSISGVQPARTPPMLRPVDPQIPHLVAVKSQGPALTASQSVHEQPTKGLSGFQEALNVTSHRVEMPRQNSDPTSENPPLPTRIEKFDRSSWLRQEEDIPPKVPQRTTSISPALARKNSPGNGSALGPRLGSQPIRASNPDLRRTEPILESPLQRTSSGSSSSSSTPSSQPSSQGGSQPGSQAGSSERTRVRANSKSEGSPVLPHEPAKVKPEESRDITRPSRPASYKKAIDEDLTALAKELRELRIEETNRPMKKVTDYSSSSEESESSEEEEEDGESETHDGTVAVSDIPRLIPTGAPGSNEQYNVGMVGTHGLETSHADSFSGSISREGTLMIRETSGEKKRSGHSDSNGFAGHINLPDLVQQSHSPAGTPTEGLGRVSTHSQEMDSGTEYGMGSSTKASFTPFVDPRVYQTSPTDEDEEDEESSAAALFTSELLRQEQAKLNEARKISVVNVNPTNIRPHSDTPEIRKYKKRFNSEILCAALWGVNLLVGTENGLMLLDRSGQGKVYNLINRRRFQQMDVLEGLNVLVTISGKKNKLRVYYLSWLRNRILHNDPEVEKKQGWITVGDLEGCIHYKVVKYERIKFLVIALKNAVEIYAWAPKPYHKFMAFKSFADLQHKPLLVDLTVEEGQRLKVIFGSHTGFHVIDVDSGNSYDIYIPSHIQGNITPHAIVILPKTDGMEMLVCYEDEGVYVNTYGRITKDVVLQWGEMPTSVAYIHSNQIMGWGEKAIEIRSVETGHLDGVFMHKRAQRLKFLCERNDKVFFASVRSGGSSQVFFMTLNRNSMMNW

For `c1cncc(-c2n[nH]cc2-c2cnc3ccccc3n2)c1` [2-(3-(pyridin-3-yl)-1H-pyrazol-4-yl)quinoxaline], the ALK5-inhibiting activity result at ALK5 was “no ALK5-inhibiting activity”. Further, the “mutagenicity / Ames test determination” value in [1] is “positive”. The “# of colony” value in data set [2] (TA1537, -S9, 78.1 μg/plate) worked out at 5; in data set [2] (TA1537, -S9, 156 μg/plate), 9; in data set [2] (TA1537, -S9, 313 μg/plate), 21; in data set [2] (TA1537, -S9, 625 μg/plate), 45; in data set [2] (TA1537, -S9, 1250 μg/plate) it was 82; in [2] (TA1537, -S9, 2500 μg/plate) it was 128. In data set [2] (TA1537, -S9, 5000 μg/plate), the “# of colony” value is reported as 194.

On to `Cc1cccc(-c2n[nH]cc2-c2ccc3ncccc3n2)n1` [ALK5iII, 2-(3-(6-methylpyridin-2-yl)-1H-pyrazol-4-yl)-1,5-naphthyridine], for which, in [3], the “estimate pIC50 value against 11 kinases” value is given as “more than 6”. In addition, the “typical endocrine cells (clusters #0, #1, #2, #3, and #6) in the insulin-positive cell population” value (“typical endocrine cells” for short) in data set [4] (scRNA-seq) is reported as “found with almost no exception”. Besides, the “Estimate pIC50 value” is listed as 6.97 ± 0.12 on TGFBR2; 7.18 ± 0.50 at CDK19; 6.82 ± 0.05 on RIPK2; 6.80 ± 0.40 at CDK8; 6.18 ± 0.14 on TNIK. In addition, the Ames test determination result in data set [2] is “positive”. In the data set with CDK8 and CDK19 (CDK8/19), the “inhibitory activity against CDK8 and CDK19 (CDK8/19)” value (“inhibitory activity” below) was “unique to ALK5iII”.

In the case of `Cl.Nc1c2ccccc2nc2ccccc12.O` [Compound 9-AA, 9-aminoacridine hydrochloride monohydrate], the “# of colony” value in data set [2] (TA1537, -S9, positive control, 80 μg (ALK5 i II experiment)) amounted to 169.

As to `Cc1cccc(-c2[nH]c(CNc3ccccc3F)nc2-c2ccc3ncnn3c2)n1` [EW-7197], in data set [5] (setting [7]), the “proportion of CHGA-positive and PDX1-positive cells” value is reported as “equivalent to the control”; the “proportion of insulin-positive and NKX6.1-positive cells” value was “equivalent to the control”. In addition, in the data set on CDK8 and CDK19 (CDK8/19), the “inhibitory activity” value is “unique to ALK5iII”.

As to `COc1ccc2nc3cc(Cl)ccc3c(NCCCNCCCl)c2c1` [ICR 191], the “# of colony” value in [2] (TA1537, -S9, positive control, 1.0 μg (quinoxaline analog experiment)) was determined as 1804.

`Cc1cccc(-c2nc(Cc3cccc(C(N)=O)c3)[nH]c2-c2ccc3nccnc3c2)n1` [IN1130, 3-[[5-(6-Methyl-2-pyridinyl)-4-(6-quinoxalinyl)-1H-imidazol-2-yl]methyl]benzamide]: in data set [5] (setting [7]), the “proportion of CHGA-positive and PDX1-positive cells” value is “equivalent to the control”; the “proportion of insulin-positive and NKX6.1-positive cells” value is “equivalent to the control”. In addition, the “inhibitory activity” value in the data set with CDK8 and CDK19 (CDK8/19) was “unique to ALK5iII”.

As for `NC(=O)c1ccc(-c2nc(-c3ccc4c(c3)OCO4)c(-c3ccccn3)[nH]2)cc1` [SB431542, 4-[4-(1,3-Benzodioxol-5-yl)-5-(2-pyridinyl)-1H-imidazol-2-yl]-benzamide], in data set [4] (scRNA-seq), the “clusters #5, #9, #10, #12, and #13” value is listed as “specialized”; the “typical endocrine cells” value is on record as “not found”. For the same compound, the “percentage of each cluster (#1, #3, #6, and #12) in insulin-positive and NKX6.1-positive cell subpopulation” value in [4] is listed as “different”. In addition, in data set [5] (setting [7]), the “proportion of CHGA-positive and PDX1-positive cells” value is “equivalent to the control”; the “proportion of insulin-positive and NKX6.1-positive cells” value is recorded as “equivalent to the control”. Besides, the “proportion of insulin-positive and NKX6.1-positive cells” value in data set [5] (setting [8]) is recorded as “lower values”. Moreover, the “mutagenicity / Ames test determination” value in [1] is reported as “no mutagenicity”. Moreover, the “inhibitory activity” value in the data set on CDK8 and CDK19 (CDK8/19) is reported as “unique to ALK5iII”. In addition, the total cell yield entry in [6] was “lower values”.

As to `Cc1cccc(-c2nc(C(C)(C)C)[nH]c2-c2ccc3nccnc3c2)n1` [SB525334, 6-[2-tert-Butyl-5-(6-methylpyridin-2-yl)-1H-imidazol-4-yl]quinoxaline], in [5] (setting [7]), the “proportion of CHGA-positive and PDX1-positive cells” value is “equivalent to the control”; the “proportion of insulin-positive and NKX6.1-positive cells” value was “equivalent to the control”. In addition, the “mutagenicity / Ames test determination” value in [1] is on record as “no mutagenicity”. Moreover, the “inhibitory activity” value with CDK8 and CDK19 (CDK8/19) is “unique to ALK5iII”.

As for `CN1CCN(C(=O)c2ccc3cc(CCNc4ncnc5ccc(C#N)cc45)ccc3c2)CC1` [Senexin B, 4-((2-(6-(4-Methylpiperazine-1-carbonyl)naphthalen-2-yl)ethyl)amino)quinazoline-6-carbonitrile], in [4] (scRNA-seq), the “typical endocrine cells” value is “found with almost no exception”. Further, the “percentage of each cluster (#1, #3, #6, and #12) in insulin-positive and NKX6.1-positive cell subpopulation” value in data set [4] is “different”. Besides, the “proportion of insulin-positive and NKX6.1-positive cells” value in data set [5] (setting [8]) is given as “higher percentage”. Further, the total cell yield result in data set [6] is listed as “lower value”.
